Experimental data from patent publication US11401255B2, “Small molecule activators of Parkin enzyme function” (Mayo Foundation for Medical Education and Research, priority 2016, dated 2022).

Test system: HeLa mtKeima cells
Experiment: Mitophagy assay (mtKeima HCI)
Type: cell-based, human
Conditions: 5 μM, low-dose CCCP
Method: HCI in 384-well plates was used to calculate the ratio of acidic to neutral mtKeima. Upon treatment with 10 μM CCCP, there was significant increase of the mtKeima ratio. Pre-treatment with compound 4 (dashed line, here shown 5 μM of compound 4) induced this also at low-dose CCCP concentrations while low dose CCCP alone (solid line) had only little effect on the ratio of acidic to neutral mtKeima.
HeLa mtKeima cells were pre-treated for 2 h with 12 different doses of Compounds 1, 2, 3, 4, and 31 before low-dose CCCP was added (3 μM final concentration). 10 μM CCCP was added to positive control wells. Cells were imaged live after 4 h and 8 h of CCCP. Values were normalized to the positive and negative (3 μM CCCP) control values for each time point. Curve fitting was used to calculate EC50 values.
To confirm mitophagy, HeLa cells expressing the pH-sensitive, mitochondria-targeted reporter mitoKeima46 were employed. A characteristic shift in the excitation wavelength of mitoKeima upon lysosomal fusion was used to determine mitochondrial turnover using […]. For mitoKeima experiments (Kim et al., Mol. Neurodegen. (2016) 11:55), cells were seeded in DMEM media lacking phenol red […]. Hoechst counterstain was added as a 5× stock in 5 μL volume. […] Segmentation of cells was performed as above and for each region of interest the ratio of acidic and neutral mitoKeima was calculated. […]

Compound: O=C(Cn1ccnc1-c1ccccn1)Nc1ccc(-c2ccccc2)cc1 [Compound 4]
- mitophagy flux (ratio of acidic to neutral mtKeima): enhanced mitophagy flux
